Results from patent US20250205189A1, “DIETARY BUTYRATE FOR TREATING OR PREVENTING AN ALLERGIC DISORDER” (SOCIETE DES PRODUITS NESTLE S.A., priority 2018, published 2025).

Tests used:
female BALB/c mice = test: Cumulative clinical score after oral OVA challenge in mice with pre-existing milk (BLG) allergy; type: in vivo; conditions: 600 μg butyrate per mL infant formula ad libitum; 12 oral OVA challenges; compared to Allergic group 1; FIG. 3
Excerpt: An allergy to milk was induced in female BALB/c mice aged eight weeks by sensitization via epicutaneous application of the milk protein β-lactoglobulin (BLG) (“Allergic group”). At this stage all three “Allergic groups” ([…], […] and Allergic group 3) were subjected to the same sensitization via epicutaneous application of the milk protein β-lactoglobulin (BLG) treatment. The non-allergic negative control group received phosphate buffered saline (PBS) only (“Control group”). Three patches were applied in total, each separated by a week without patch in between. Six days following the final skin patch, mice were orally challenged with BLG following a conventional procedure known to those skilled in the art. Serum was processed for ELISA and BLG-specific Immunoglobulin E (IgE) and BLG-specific Immunoglobulin G1 (IgG1) were determined (FIGS. 1 and 2 respectively).
Following the induction of milk allergy, “Control group” and “Allergic group 1” received infant formula for nutritional management of cow's milk allergy (the extensively hydrolyzed infant formula available commercially under the Trademark Althéra® was used in this example) reconstituted in the drinking water for a three-week period. […]

[1] = tested on: mast cell protease-1 (MCPT-1); test: Serum ELISA of mast cell protease-1 after oral OVA challenge; type: in vivo, mice; conditions: 600 μg butyrate per mL infant formula, FIG. 6
GATA-3 = conditions: cited from earlier work
[2] = tested on: OVA-specific IgE, OVA-specific IgG1; test: Serum ELISA of OVA-specific IgE and IgG1 after oral OVA challenge; type: in vivo, mice; conditions: 600 μg butyrate per mL infant formula, compared across the three Allergic groups

CCCC(=O)[O-].[Na+] [sodium butyrate]
Allergic symptoms (cumulative clinical score) (female BALB/c mice): reduction of allergic symptoms | Mast cell protease-1 (MCPT-1) [1]: reduction in mast cell protease-1 | GATA-3 or FoxP3 expression (GATA-3; 0.1 mM, CD4+ T cells under Th2 polarizing conditions (Furusawa 2013)): insufficient to influence GATA-3 or FoxP3 expression | Gata3 expression (GATA-3; 1 mM in vitro, Th2 polarized CD4+ T cells (Kespohl 2017)): sufficient to ameliorate Gata3 expression | OVA-specific IgE level ([2]; FIG. 4): similar | OVA-specific IgG1 level ([2]; FIG. 5): similar
